pIC50: −log10 of the molar value. Where two headings read alike, the source gives them in different places.
Columns and labels:
Assay type in all cases: cell-based
U937 cells = assay: Antiproliferative activity against various tumor cells: U937; conditions: Homo sapiens, read-out: Antiproliferative activity IC50 U937
Procedure: (§1) U937, NCI-H929, AML-2, and MOLM-13 cells in the logarithmic growth phase were diluted in media RPMI+10% FBS, RPMI+10% FBS, MEMα+20% FBS, RPMI+20% FBS, respectively, and plated at 4,000 cells/well in 96-well whole black plates (WHB) with 50 μL/well. After plating, the plates were incubated in an incubator at 5% CO2 and 37° C. for 24 h before the compounds were added. The compounds were prepared into a 10 mM stock solution in DMSO and diluted in a culture medium to the desired concentrations (a final DMSO concentration of 0.2%). […] The plates were incubated at 5% CO2 and 37° C. for 72 h. After the incubation was complete, the plates were equilibrated at room temperature for 30 min. CellTiter-Glo® Reagent (Promega G7573) was added at 100 μL/well. The plates were shaken for 12 min on a microplate shaker. The luminescence value was measured at room temperature by the GloMax navigator (Promega GM2010).

GSPT1 protein = target: T1, GSPT1 protein (Homo sapiens, UniProt P15170); assay: Degradation of GSPT1 protein in NB-4 cells (Western blot); conditions: for inhibition at 1 µM: read-out: GSPT1 degradation
T1 construct: The whole cell lysate was prepared using a RIPA lysis buffer; endogenous in cells; host or cells: NB-4 cells
T1 sequence (P15170 whole entry): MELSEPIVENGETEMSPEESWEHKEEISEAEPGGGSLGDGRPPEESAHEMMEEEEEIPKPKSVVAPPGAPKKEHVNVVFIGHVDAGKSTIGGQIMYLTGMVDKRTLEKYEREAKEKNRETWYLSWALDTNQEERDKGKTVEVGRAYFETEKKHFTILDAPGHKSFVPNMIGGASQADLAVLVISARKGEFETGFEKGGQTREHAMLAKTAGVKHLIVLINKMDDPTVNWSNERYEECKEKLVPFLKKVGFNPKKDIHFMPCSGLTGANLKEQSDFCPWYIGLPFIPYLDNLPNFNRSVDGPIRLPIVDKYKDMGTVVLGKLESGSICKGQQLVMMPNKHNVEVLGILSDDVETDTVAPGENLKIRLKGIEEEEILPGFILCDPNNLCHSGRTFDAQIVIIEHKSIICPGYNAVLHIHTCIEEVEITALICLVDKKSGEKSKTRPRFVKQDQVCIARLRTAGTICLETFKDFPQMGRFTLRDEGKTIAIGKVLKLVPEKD
How it was run: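 GSPT1 levels were read by Western blot (4-20% SDS-PAGE, PVDF, overnight primary antibody at 4 °C) on lysates of NB-4 cells.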

c-Myc = target: T2, c-Myc (Homo sapiens, UniProt P01106); assay: Degradation of c-MYC protein in HL-60 cells (Western blot); conditions: 4 h
T2 construct: The whole cell lysate was prepared using a RIPA lysis buffer; endogenous in cells; host or cells: HL-60 cells
T2 sequence (P01106 whole entry): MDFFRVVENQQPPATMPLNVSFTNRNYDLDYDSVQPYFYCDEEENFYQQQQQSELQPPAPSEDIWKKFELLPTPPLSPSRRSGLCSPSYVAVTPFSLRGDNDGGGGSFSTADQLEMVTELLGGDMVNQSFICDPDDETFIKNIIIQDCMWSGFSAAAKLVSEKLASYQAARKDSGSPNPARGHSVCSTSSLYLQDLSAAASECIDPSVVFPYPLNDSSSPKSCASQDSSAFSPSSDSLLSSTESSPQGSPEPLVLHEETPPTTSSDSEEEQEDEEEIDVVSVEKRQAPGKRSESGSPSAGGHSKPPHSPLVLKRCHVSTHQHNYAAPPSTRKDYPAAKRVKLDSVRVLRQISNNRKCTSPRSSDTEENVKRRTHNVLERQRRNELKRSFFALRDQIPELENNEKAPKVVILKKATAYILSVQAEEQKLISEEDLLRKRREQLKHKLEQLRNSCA
Procedure: […] of DMSO and the compounds were added, and the mixture was incubated in an incubator at 5% CO2 and 37° C. for 4 h. The cells were centrifuged, and the culture medium was discarded. PBS was added for washing and then discarded. The whole cell lysate was prepared using a RIPA lysis buffer containing a protease inhibitor cocktail and a phosphatase inhibitor, and incubated on ice for 30 min. The mixture was centrifuged, and the cell debris was discarded. The whole cell lysate supernatant was collected and transferred to a fresh EP tube. Samples were prepared using a loading buffer after a BCA protein assay. The samples were incubated in a metal bath at 100° C. for 10 min. The samples were electrophoretically separated from proteins on a 4-20% precast gel (SDS-PAGE gel), transferred to a PVDF membrane, blocked with 5% NFDM/TBST for 1 h at room temperature, co-incubated overnight at 4° C. with the primary antibody, and co-incubated for 2 h at room temperature with the secondary antibody on the next day. The signals were detected on the […]™ imaging system.

AML-2 cells = assay: Antiproliferative activity against various tumor cells: AML-2; conditions: 72 h, read-out: Antiproliferative activity IC50 AML-2
Procedure: as §1

NCI-H929 cells = assay: Antiproliferative effect alone and in combination with dexamethasone against NCI-H929 cells; conditions: for pIC50: Homo sapiens, NCI-H929, 72 h, 72 h
Procedure: (§2) MOLM-13 cells in the logarithmic growth phase were diluted in a medium RPMI+[…], and NCI-H929 cells were diluted in a medium RPMI+10% FBS. The cells were plated at 4,000 cells/well in 96-well whole black plates (WHB) with 50 μL/well. After plating, the plates were incubated in an incubator at 5% CO2 and 37° C. for 24 h before the compounds were added. The compounds were prepared into a 10 mM stock solution in DMSO and diluted in a culture medium to the desired concentrations (a final DMSO concentration of 0.2%). 50 μL of the compound dilutions at final concentrations of 10,000, 3,333.33, 1,111.11, 370.37, 123.46, 41.15, 13.72, 4.57, 1.52, and 0 nM were added to the 96-well plates containing the cells, that is, each compound was serially diluted to 10 concentrations in duplicate. The plates were incubated at 5% CO2 and 37° C. for 72 h. When pharmaceutical partners were used, the concentrations of azacitidine and dexamethasone were kept at 200 nM and 500 nM respectively, and the compounds were serially three-fold diluted from 10,000 nM. After the incubation was complete, the plates were equilibrated at room temperature for 30 min. CellTiter-Glo® Reagent (Promega G7573) was added at 100 μL/well. The plates were shaken for 12 min on a microplate shaker. The luminescence value was measured at room temperature by the GloMax navigator (Promega GM2010). The IC50 values were calculated using the GraphPad Prism 7 software with the 0 nM control group as 0% inhibition.

MOLM-13 cells = assay: Antiproliferative effect alone and in combination with azacitidine against MOLM-13 cells; conditions: MOLM-13 cells; for pIC50: Homo sapiens, MOLM-13, 72 h, 72 h
Procedure: as §2

Structure (SMILES): O=C1CCC(N2Cc3c(ccc(CNC(=O)c4ccc(Cl)cc4)c3F)C2=O)C(=O)N1 (centres unmarked) [FDAB-48]
- pIC50 (U937 cells; U-937, 72 h): 7.00 to 8.00
- inhibition at 1 µM (GSPT1 protein; NB-4, 6 h): > 80%
- degradation of GSPT1 protein (GSPT1 protein; co-incubated for 6 h with NB-4 cells): 88%
- c-Myc degradation (c-Myc; 10 nM): D (D denotes a percentage of degradation less than 25%)
- c-Myc degradation (c-Myc; 100 nM): D (D denotes a percentage of degradation less than 25%)
- c-Myc degradation (c-Myc; 1000 nM): C (C denotes a percentage of degradation less than 500% but not less than 250%)
- pIC50 (AML-2 cells): 6.00 to 7.00
- increase of antiproliferative activity IC50 when combined with 500 nM dexamethasone (NCI-H929 cells): about 6 folds
- pIC50 (NCI-H929 cells; compound alone): 7.85
- pIC50 (NCI-H929 cells; in combination with 500 nM dexamethasone): 8.61

Structure (SMILES): Cc1ccc(C(=O)NCc2ccc3c(c2F)CN(C2CCC(=O)NC2=O)C3=O)c(F)c1 (centres unmarked) [FDAB-121]
- pIC50 (U937 cells; U-937, U937 cells, 72 h): 7.00 to 8.00
- inhibition at 1 µM (GSPT1 protein; NB-4 cells, compound 1 μM, 6 h): > 80%
- c-Myc degradation (c-Myc; 10 nM): D (D denotes a percentage of degradation less than 25%)
- c-Myc degradation (c-Myc; 100 nM): D (D denotes a percentage of degradation less than 25%)
- c-Myc degradation (c-Myc; 1000 nM): D (D denotes a percentage of degradation less than 25%)
- pIC50 (MOLM-13 cells; compound alone): 6.61
- pIC50 (MOLM-13 cells; in combination with 200 nM azacitidine): 8.01
- activity relative to CC-90009, alone or in combination with azacitidine (MOLM-13 cells): about 5 folds
- increase of antiproliferative activity IC50 when combined with 200 nM azacitidine (MOLM-13 cells): about 25 folds
- pIC50 (AML-2 cells; AML-2 cells): 7.00 to 8.00

Reference: patent US20250282746A1, “HALOGEN-SUBSTITUTED ISOINDOLINE COMPOUND AND USE THEREOF” (CHENGDU FENDI PHARMACEUTICAL CO., LTD., priority 2022, published 2025)
